According to the supplement of paper PMC13380429:

How the values were obtained:
Conditions in all cases: 72 h
[1] = system: Caco-2; test: cell viability relative to DMSO; higher = less toxic
[2] = system: Calu-3; test: as above
[3] = system: HepG2; test: as above
[4] = system: U2OS; test: as above
[5] = system: Vero E6; test: as above
[6] = system: Calu-3; test: relative viability EC50 (midpoint between 100% and the lowest measured viability); higher = less toxic
[7] = system: HepG2; test: as above
[8] = system: U2OS; test: as above
[9] = system: Vero E6; test: as above
[10] = system: Caco-2; test: drug sensitivity score (DSS) for viability; higher = more toxic; extreme values may be limits of the assay
[11] = system: Calu-3; test: as above
[12] = system: HepG2; test: as above
[13] = system: U2OS; test: as above
[14] = system: Vero E6; test: as above
[15] = system: Caco-2; test: relative viability EC50 (midpoint between 100% and the lowest measured viability); higher = less toxic

Structure (SMILES) | cell viability ([1]; 1 nM) [%] | cell viability ([1]; 10 nM) [%] | cell viability ([1]; 100 nM) [%] | cell viability ([1]; 1000 nM) [%] | cell viability ([1]; 10000 nM) [%] | cell viability ([2]; 1 nM) [%] | cell viability ([2]; 10 nM) [%] | cell viability ([2]; 100 nM) [%] | cell viability ([2]; 1000 nM) [%] | cell viability ([2]; 10000 nM) [%] | cell viability ([3]; 1 nM) [%] | cell viability ([3]; 10 nM) [%] | cell viability ([3]; 100 nM) [%] | cell viability ([3]; 1000 nM) [%] | cell viability ([3]; 10000 nM) [%] | cell viability ([4]; 1 nM) [%] | cell viability ([4]; 10 nM) [%] | cell viability ([4]; 100 nM) [%] | cell viability ([4]; 1000 nM) [%] | cell viability ([4]; 10000 nM) [%] | cell viability ([5]; 1 nM) [%] | cell viability ([5]; 10 nM) [%] | cell viability ([5]; 100 nM) [%] | cell viability ([5]; 1000 nM) [%] | cell viability ([5]; 10000 nM) [%] | relative viability EC50 [6] [µM] | relative viability EC50 [7] [µM] | relative viability EC50 [8] [µM] | relative viability EC50 [9] [µM] | drug sensitivity score [10] | drug sensitivity score [11] | drug sensitivity score [12] | drug sensitivity score [13] | drug sensitivity score [14] | relative viability EC50 [15] [µM]
CC(=C(CCOC(=O)C(C)C)SSC(CCOC(=O)C(C)C)=C(C)N(C=O)Cc1cnc(C)nc1N)N(C=O)Cc1cnc(C)nc1N (stereo in doubt) [sulbutiamine] | 90.8 | 105 | 70.2 | 98.5 | 81.8 | 109 | 111 | 112 | 105 | 89.1 | 101 | 84.5 | 112 | 95.3 | 97.4 | 101 | 106 | 105 | 101 | 92.8 | 100 | 84.3 | 98.7 | 89.2 | 95.1 | > 10 | > 10 | > 10 | > 10 | 1.2 | 0 | 0 | 0 | 0 | –
CCOC(=O)CCNc1cc(N2CCc3ccccc3CC2)nc(-c2ccccn2)n1 [GSK-J4] | 93.2 | 88.2 | 104 | 70.9 | 17.4 | 103 | 89.5 | 96.5 | 97.5 | 21.2 | 103 | 103 | 97.8 | 104 | 33.5 | 97.8 | 97.6 | 99.3 | 94.8 | 5.5 | 93.9 | 101 | 91.7 | 96.8 | 63.2 | 2.93 | 3.45 | 2.74 | – | 8.6 | 4.7 | 3.4 | 6 | 2.3 | 1.28
CN(C)CCCNC(=O)c1ccc(-c2cc(O)c3ncccc3c2)cc1 [ML324] | 107 | 94.3 | 107 | 91.7 | 80.6 | 105 | 93.8 | 106 | 94.1 | 83.4 | 88.7 | 103 | 88.2 | 104 | 35.7 | 105 | 98.9 | 107 | 98.5 | 85 | 98.5 | 100 | 96.2 | 101 | 58.1 | > 10 | 3.52 | > 10 | – | 1.4 | 0.9 | 3.2 | 0.4 | 2 | > 10
CC1(C)CCC[C@]2(C)[C@H]3CC(=O)O[C@]3(C)CC[C@@H]12 [Sclareolide (Norambreinolide)] | 95.7 | 96.6 | 92.7 | 102 | 88.5 | 100 | 104 | 99.4 | 107 | 87.6 | 106 | 99.1 | 108 | 101 | 100 | 100 | 100 | 97 | 99.5 | 99.5 | – | – | – | – | – | > 10 | > 10 | > 10 | – | 0 | 0 | 0 | 0 | – | > 10
CN(C)CCCO[C@@H]1[C@H]2OC(C)(C)O[C@H]2O[C@@H]1[C@H](O)CO [amiprilose] | 107 | 86.8 | 101 | 95.1 | 97.3 | 98.7 | 102 | 98 | 101 | 100 | 91.3 | 102 | 97.3 | 99.6 | 85.8 | 102 | 99.8 | 100 | 103 | 101 | – | – | – | – | – | > 10 | > 10 | > 10 | – | 0 | 0 | 0.2 | 0 | – | > 10
Nc1ccc(F)cc1NC(=O)c1ccc(CNC(=O)/C=C/c2cccnc2)cc1 [chidamide] | 95.3 | 104 | 97.1 | 85.1 | 55.9 | 113 | 101 | 89.4 | 49.1 | 35.1 | 97.6 | 105 | 91.4 | 69.4 | 28.1 | 101 | 103 | 104 | 77.6 | 9.8 | 95.6 | 99.7 | 95.4 | 100 | 67.5 | 0.365 | 1.17 | 1.56 | – | 4.1 | 10.7 | 7.4 | 8.4 | 1.4 | –
CCCC(=O)OCOC(=O)C1=C(C)NC(C)=C(C(=O)OC)C1c1cccc(Cl)c1Cl (stereo unspecified) [cleviprex] | 97.6 | 109 | 99.1 | 102 | 87 | 101 | 92 | 105 | 108 | 118 | 97.9 | 97.8 | 110 | 111 | 99.8 | 98.8 | 104 | 100 | 107 | 95.3 | – | – | – | – | – | > 10 | > 10 | > 10 | – | 0.1 | 0 | 0 | 0 | – | > 10
CN(C)CC[C@@](O)(c1ccccc1)c1ccccc1Cl [clofedanol] | 93.4 | 89.6 | 103 | 95.8 | 72.5 | 101 | 106 | 102 | 101 | 96.4 | 93.7 | 97.1 | 101 | 94.2 | 113 | 99.2 | 98.1 | 92.7 | 102 | 100 | 104 | 96.5 | 99.5 | 88.9 | 101 | > 10 | > 10 | > 10 | > 10 | 1.8 | 0 | 0 | 0 | 0 | –
N[C@H](Cc1c[nH]cn1)C(=O)O [copper-histidine] | 106 | 102 | 107 | 98.8 | 107 | 105 | 94.4 | 84.8 | 82.1 | 99.5 | 110 | 98.7 | 103 | 104 | 89.3 | 101 | 96.1 | 95.8 | 97.3 | 97.3 | – | – | – | – | – | > 10 | > 10 | > 10 | – | 0 | 0.1 | 0 | 0 | – | > 10
Nc1nc(=O)[nH]cc1F [flucytosine] | 97.6 | 94 | 100 | 96.5 | 92.9 | 87.6 | 102 | 99.9 | 91.1 | 111 | 101 | 110 | 97.6 | 109 | 110 | 98.6 | 99.2 | 102 | 97.9 | 104 | – | – | – | – | – | > 10 | > 10 | > 10 | – | 0 | 0 | 0 | 0 | – | > 10
Oc1c(I)cc(I)c2cccnc12 [iodoquinol] | 107 | 94.3 | 97.1 | 96.3 | 63.1 | 106 | 98.6 | 99.7 | 93.4 | 98.4 | 109 | 99 | 93.7 | 99.9 | 36.1 | 104 | 100 | 102 | 98.5 | 85.2 | 100 | 106 | 100 | 99.8 | 68.1 | > 10 | 3.15 | > 10 | – | 2.4 | 0 | 3.5 | 0.4 | 1.5 | –
O=C1[C@@H]2[C@H]3CC[C@H](C3)[C@@H]2C(=O)N1C[C@@H]1CCCC[C@H]1CN1CCN(c2nsc3ccccc23)CC1 [lurasidone] | 94.5 | 100 | 99.6 | 104 | 64.5 | 99.8 | 97.8 | 105 | 94.7 | 105 | 106 | 106 | 99.5 | 96.9 | 89.2 | 104 | 107 | 95.9 | 102 | 88.4 | 104 | 102 | 103 | 99.6 | 97.2 | > 10 | > 10 | > 10 | > 10 | 1.4 | 0 | 0.1 | 0 | 0 | –
CC#C[C@]1(O)CC[C@H]2[C@@H]3CCC4=CC(=O)CCC4=C3[C@@H](c3ccc(N(C)C)cc3)C[C@@]21C [mifepristone] | 88.8 | 93.4 | 94.1 | 100 | 72 | 96.2 | 103 | 88.7 | 96.3 | 109 | 93.6 | 92.6 | 102 | 90.3 | 99 | 100 | 100 | 100 | 104 | 91.8 | 98 | 101 | 98.4 | 96.8 | 97.6 | > 10 | > 10 | > 10 | > 10 | 1.2 | 0 | 0 | 0 | 0 | –
CCCCCCCCCCCCOCCOCCOCCOCCOCCOCCOCCOCCOCCO [polidocanol] | 85.7 | 105 | 99.9 | 108 | 69.7 | 106 | 105 | 99.6 | 106 | 91.5 | 105 | 98.5 | 124 | 111 | 28.9 | 91.5 | 103 | 95.4 | 101 | 90.4 | 99.5 | 89.7 | 104 | 108 | 116 | > 10 | 3.8 | > 10 | > 10 | 1 | 0 | 3.3 | 0 | 0 | –
Cc1ncc(CSSCc2cnc(C)c(O)c2CO)c(CO)c1O [pyritinol] | 99.8 | 87.4 | 94.5 | 100 | 92.7 | 96.1 | 105 | 94.4 | 99.2 | 105 | 90 | 97.7 | 108 | 95.8 | 97.8 | 103 | 100 | 96.6 | 101 | 98.3 | – | – | – | – | – | > 10 | > 10 | > 10 | – | 0 | 0 | 0 | 0 | – | > 10
Clc1ccc(CSC(Cn2ccnc2)c2ccc(Cl)cc2Cl)cc1 (stereo unspecified) [sulconazole] | 99.5 | 92.7 | 97.3 | 94 | 63.5 | 107 | 95.5 | 102 | 110 | 96.7 | 86.9 | 87.4 | 102 | 99.1 | 98.1 | 97.5 | 101 | 96 | 101 | 93.7 | 106 | 104 | 104 | 95.4 | 94.6 | > 10 | > 10 | > 10 | > 10 | 2.7 | 0 | 0 | 0 | 0 | –
